The record followed here is patent US20030207933A1, “Compositions and methods for increasing the sensitivity of apoptosis-resistant tumor cells to inducers of apoptosis” (priority 2002, published 2003).

Data set [1] concerns HL-60 Bcl-2 cells. In words: DNA fragmentation (release of 3H-labeled DNA fragments) in Bcl-2-transfected HL-60 cells. Type of data set: cell-based, human.
For data set [2], the system named is Ramos B lymphoma cells. As to the kind of experiment: Dox cytotoxicity by trypan blue exclusion in Ramos cells. The data set is classed as cell-based. Particulars: 24 hr. On the procedure: In the present study, the sensitizing activity of W-188 and W-143 was tested in the Raji and Ramos cell lines. Since these two human B lymphoma lines naturally express high levels of anti-apoptotic Bcl-2 proteins, they may be more clinically relevant than the transfected HL-60-Bcl-2 line.
The sensitizing effects of W-143 and W-188 were first tested on these lines in vitro. […] Ramos cells were cultured with different concentrations of Dox with and without W-143 or W-188 at 20 μg/ml for 24 hr, and then viability assessed microscopically by counting at least 100 cells.

The test system of data set [3] is mice. In words: Acute single dose toxicity. Particulars: 1000 mg/kg single dose. The data set is classed as in vivo. The procedure:
The present study assessed the acute single-dose toxicity of W-188 and W-143.
Solutions of W-188 were dissolved in DMSO and injected i.p. in groups of three mice each as well as vehicle control at 500 mg/kg.
Since W-143 is water-soluble, higher doses could be tested.
Therefore, the MTD (maximum tolerated dose) for a single dose of either compound is estimated to be 500 mg/kg.

In data set [4] the test system is mice. In words: Multiple dose toxicity with histopathological analysis. Type of data set: in vivo. The procedure: In the present study, more extensive toxicity studies with histopathological analysis of seven different tissues was performed on W-143 at a commercial lab.
Groups of six mice (3 male and 3 females) each were given three i.p. injections at two day intervals of vehicle, doxorubicin 5 mg/kg alone, W-143 200 mg/kg alone or both together. On day 5 and day 15 after the last injection, mice were sacrificed, necropsied, and tissue samples processed. Tissues examined include bone marrow, liver, heart, small and large intestine, 1 sex organ, and kidney.

The subject of data set [5] is RIF-1 fibrosarcoma. In words: RIF-1 fibrosarcoma tumor growth in vivo. Also on record: species or system mice. Particulars: for Inhibition of tumor growth compared to vehicle control: day 15. The source says: The present study tested in the ability of W-188 to synergize with Dox and inhibit tumor growth in vivo. The RIF-1 fibrosarcoma model was used because this model has been well-characterized, and naturally expresses high Bcl-2 levels and has a consistent growth pattern (Nahabedian, M. Y., et al., J. Natl. Can. Inst., 1988, 80:739; Chang, M-J., et al., Cancer Res., 1994, 54:5380; Srivastana, M., et al., J. Biol. Chem., 2001, 276:15481).
Groups of five mice each were inoculated s.c. with RIF-1 cells. The tumors were allowed to grow for 12 days to a size of 0.5 cm diameter, which was designated day 0. The mice were then given five i.p. injections every other day with vehicle, Dox 2.5 mg/kg, Dox 5.0 mg/kg, W-188 100 mg/kg, and Dox 5.0 mg/kg+W-188 100 mg/kg. The mice were weighed and the tumor size measured every day.
The protocol was similar to that described for the W-188 experiment in Example 8, except that in this study, mice with established tumors received only three injections of W-143 or Dox every other day starting on day 0.

In data set [6] the test system is Bcl-2. In words: Western blot for expression of Bcl-2 in RIF-1 tumors in vivo. Set-up: species or system mice. Particulars: day 15. The source says:
Cells were dissociated, lysed, and the nuclei and mitochondria separated by differential centrifugation. RIF-1 cells cultured in vitro were processed in a similar manner as a positive control. Equal amounts of protein extracts were separated by electrophoresis and analyzed by Western blot for expression of Bcl-2. […] The pattern of Bcl-2 expression was similar in the nuclei, although the overall levels were lower than in the mitochondria. […] Most likely, this discrepancy can be explained by the fact that this line is transfected with exogenous Bcl-2, whereas the RIF-1 line expresses endogenous Bcl-2 under control of its natural promoter. […] Alternatively, W-188 and W-143 may differ in their mechanisms of action, although this conclusion seems less likely in view of the structural similarity of these two compounds.

A short description of data set [7]: Water solubility. The data set is classed as physicochemical.
Data set [8] can be described thus: Body weight of RIF-1 tumor bearing mice.
From the text: Groups of five mice each were inoculated s.c. with RIF-1 cells. The tumors were allowed to grow for 12 days to a size of 0.5 cm diameter, which was designated day 0. […] The mice were weighed and the tumor size measured every day.
Where [9] appears, read: W-143 100 mg/kg alone, data not shown.

“Also recorded” adds a separate entry of the source.

On to `CCC1=C(C)C(=O)NC1C` (centres unmarked) [W-143, 3,5-dimethyl-4-ethyl-2-oxo-2,5-dihydropyrrole], for which the “Sensitization to etoposide-induced apoptosis” value in data set [1] is “sensitize 1L-60-Bcl-2 cells to etoposide-induced apoptosis”. Further, the “% DNA Fragmentation” value in data set [1] (Exp 5, etoposide 10 μM + compound 10 μM) was 34%. Moreover, the “Toxicity of compound alone” value in data set [2] (20 μg/ml, no Dox) is “completely nontoxic”. The “Increase of cytotoxicity mediated by Dox” value in data set [2] (compound 20 μg/ml + Dox, FIG. 6) is reported as “over two fold”. Besides, in data set [3], the Deaths entry was “All three mice injected with 1000 mg/kg of W-143 died within 24 h”. Also, the Histopathology result in data set [4] (W-143 200 mg/kg alone, three i.p. injections at two day intervals, day 5) is on record as “minor vacuolar changes in the liver”; in data set [4] (W-143 200 mg/kg alone, day 15), “all tissues were normal”; in data set [4] (doxorubicin 5 mg/kg + W-143 200 mg/kg, three i.p. injections, day 5), “minor vacuolar changes in the liver”; in data set [4] (doxorubicin 5 mg/kg + W-143 200 mg/kg, day 15), “all tissues were normal”. In addition, the “Inhibition of tumor growth compared to vehicle control” value stood at 70% in data set [5] (Dox + W-143 100 mg/kg, p=0.005) and 83% in data set [5] (Dox + W-143 200 mg/kg, p=0.001). Also, the “Effect on tumor growth” value in data set [5] (setting [9]) was “did not decrease tumor growth”; in data set [5] (W-143 200 mg/kg alone, three injections, FIG. 14), “only a small effect on tumor growth”; in data set [5] (W-143 + Dox combined) it was “synergistically inhibited tumor growth”. Further, the “Bcl-2 expression in tumor cell mitochondria” value in data set [6] (Dox + W-143, FIG. 16 lane 10) is “no detectable Bcl-2”; in data set [6] (W-143 alone, FIG. 16), “expressed high levels of Bcl-2”. The Water solubility result in data set [7] is “water soluble; also recorded: water-soluble”. Further, the Body weight result was “did not show any greater weight loss” in data set [8] (Dox + W-143 100 mg/kg, any time point); “weighed just as much as mice treated with Dox alone on day 13” in data set [8] (Dox + W-143 200 mg/kg, day 13); “weighed similar to the vehicle control mice” in data set [8] (setting [9]).
